Data as given in ChEMBL document CHEMBL3769352, “Design, synthesis, and testing of an isoquinoline-3-carboxylic-based novel anti-tumor lead” (Bioorg Med Chem Lett, 2015).

Legend:
Mus musculus [1] = experiment: Toxicity in Swiss mouse allografted with mouse S180 cells assessed as effect on kidney to body weight ratio at 2 umol/kg, sc administered every day for 12 days measured on fourteenth day; format: organism-based, CCRF S-180; conditions: in vivo, 288 h
Mus musculus [2] = experiment: Toxicity in Swiss mouse allografted with mouse S180 cells assessed as spleen weight index at 2 umol/kg, sc administered every day for 12 days measured on fourteenth day; format: organism-based, CCRF S-180; conditions: in vivo, 288 h
A2780 = experiment: Cytotoxicity against human A2780 cells after 48 hrs by MTT assay; format: functional, cell-based; conditions: A2780, 48 h
KB = experiment: Cytotoxicity against human KB cells after 48 hrs by MTT assay; format: functional, cell-based
[3] = Cytotoxicity against human Bel7402 cells after 48 hrs by MTT assay; format: functional, cell-based; conditions: Bel-7402, 48 h
HepG2 = experiment: Cytotoxicity against human HepG2 cells after 48 hrs by MTT assay; format: functional, cell-based; conditions: HepG2, 48 h
MCF7 = experiment: Cytotoxicity against human MCF7 cells after 48 hrs by MTT assay; format: functional, cell-based; conditions: MCF7, 48 h
Mus musculus [4] = experiment: Toxicity in Swiss mouse allografted with mouse S180 cells assessed as effect on brain to body weight ratio at 2 umol/kg, sc administered every day for 12 days measured on fourteenth day; format: organism-based, CCRF S-180; conditions: in vivo, 288 h
Mus musculus [5] = experiment: Toxicity in Swiss mouse allografted with mouse S180 cells assessed as body weight at 2 umol/kg, sc administered every day for 12 days measured every day during compound administration; format: organism-based, CCRF S-180; conditions: in vivo, 288 h
Mus musculus [6] = experiment: Toxicity in Swiss mouse allografted with mouse S180 cells assessed as effect on heart to body weight ratio at 2 umol/kg, sc administered every day for 12 days measured on fourteenth day; format: organism-based, CCRF S-180; conditions: in vivo, 288 h
HeLa = experiment: Cytotoxicity against human HeLa cells after 48 hrs by MTT assay; format: functional, cell-based
Mus musculus [7] = experiment: Toxicity in Swiss mouse allografted with mouse S180 cells assessed as effect on liver to body weight ratio at 2 umol/kg, sc administered every day for 12 days measured on fourteenth day; format: organism-based, CCRF S-180; conditions: in vivo, 288 h
Mus musculus [8] = experiment: Toxicity in Swiss mouse allografted with mouse S180 cells assessed as effect on spleen to body weight ratio at 2 umol/kg, sc administered every day for 12 days measured on fourteenth day; format: organism-based, CCRF S-180; conditions: in vivo, 288 h
CCRF S-180 [9] = experiment: Antitumor activity against mouse S180 cells allografted in Swiss mouse assessed as tumour weight at 8 umol/kg, sc administered every day for 12 days measured on fourteenth day (reference value: 1.662 +/- 0.355 g); format: functional
Mus musculus [10] = experiment: Toxicity in Swiss mouse allografted with mouse S180 cells assessed as reduction in spleen weight index at 2 umol/kg, sc administered every day for 12 days measured on fourteenth day; format: organism-based, CCRF S-180; conditions: in vivo, 288 h
CCRF S-180 [11] = experiment: Antitumor activity against mouse S180 cells allografted in Swiss mouse assessed as tumour weight at 2 umol/kg, sc administered every day for 12 days measured on fourteenth day (reference value: 1.662 +/- 0.355 g); format: functional
Mus musculus [12] = experiment: Toxicity in Swiss mouse allografted with mouse S180 cells assessed as reduction in liver to body weight ratio at 2 umol/kg, sc administered every day for 12 days measured on fourteenth day; format: organism-based, CCRF S-180; conditions: in vivo, 288 h
Mus musculus [13] = experiment: Toxicity in Swiss mouse allografted with mouse S180 cells assessed as effect on body weight at 8 umol/kg, sc administered every day for 12 days measured every day during compound administration; format: organism-based, CCRF S-180; conditions: in vivo, 288 h
Mus musculus [14] = experiment: Toxicity in Swiss mouse allografted with mouse S180 cells assessed as effect on kidney to body weight ratio at 8 umol/kg, sc administered every day for 12 days measured on fourteenth day; format: organism-based, CCRF S-180; conditions: in vivo, 288 h
Mus musculus [15] = experiment: Toxicity in Swiss mouse allografted with mouse S180 cells assessed as effect on liver to body weight ratio at 8 umol/kg, sc administered every day for 12 days measured on fourteenth day; format: organism-based, CCRF S-180; conditions: in vivo, 288 h
Mus musculus [16] = experiment: Toxicity in Swiss mouse allografted with mouse S180 cells assessed as spleen weight index at 8 umol/kg, sc administered every day for 12 days measured on fourteenth day; format: organism-based, CCRF S-180; conditions: in vivo, 288 h
Mus musculus [17] = experiment: Toxicity in Swiss mouse allografted with mouse S180 cells assessed as effect on heart to body weight ratio at 8 umol/kg, sc administered every day for 12 days measured on fourteenth day; format: organism-based, CCRF S-180; conditions: in vivo, 288 h
Mus musculus [18] = experiment: Toxicity in Swiss mouse allografted with mouse S180 cells assessed as effect on brain to body weight ratio at 8 umol/kg, sc administered every day for 12 days measured on fourteenth day; format: organism-based, CCRF S-180; conditions: in vivo, 288 h
Mus musculus [19] = experiment: Toxicity in Swiss mouse allografted with mouse S180 cells assessed as effect on spleen to body weight ratio at 8 umol/kg, sc administered every day for 12 days measured on fourteenth day; format: organism-based, CCRF S-180; conditions: in vivo, 288 h

In the case of O=C(O)c1cc2ccccc2cn1, the Activity (Mus musculus [1]) is reported as “Non-toxic”, the Activity (Mus musculus [2]) is reported as “Non-toxic” and the IC50 (A2780) is reported as > 100 µM. For the same compound, the IC50 (KB) was > 100 µM, the IC50 [3] was > 100 µM and the IC50 (HepG2) was > 100 µM. The IC50 (MCF7) was > 100 µM, the Activity (Mus musculus [4]) was “Non-toxic” and the Activity (Mus musculus [5]) was 33 g. The Activity (Mus musculus [6]) was “Non-toxic”, the IC50 (HeLa) was > 100 µM and the Activity (Mus musculus [7]) was “Non-toxic”. For the same compound, the Activity (Mus musculus [8]) was “Non-toxic” and the Activity (CCRF S-180 [9]) was 1.104 g.
With COc1cccc2c1C(=O)c1c(O)c3c(c(O)c1C2=O)C[C@@](O)(C(=O)CO)C[C@@H]3O[C@H]1C[C@H](N)[C@H](O)[C@H](C)O1 [DOXORUBICIN] the Activity (Mus musculus [10]) was “Toxic”, the IC50 (A2780) was 0.27 µM and the IC50 (KB) was 0.13 µM. It also gave an IC50 [3] of 1.36 µM, an IC50 (HepG2) of 0.58 µM and an IC50 (MCF7) of 0.16 µM. For the same compound, the Activity (Mus musculus [5]) was 24 g, the Activity (CCRF S-180 [11]) was 0.401 g and the IC50 (HeLa) was 0.6 µM. The Activity (Mus musculus [12]) was “Toxic”.
In the case of O=C(NCCN(CCNC(=O)c1cc2ccccc2cn1)CCNC(=O)c1cc2ccccc2cn1)c1ccccc1, the Activity (Mus musculus [13]) is reported as 33 g, the IC50 (A2780) is reported as 33.6 µM and the Activity (Mus musculus [14]) is reported as “Non-toxic”. For the same compound, the IC50 (KB) was 75.2 µM, the IC50 [3] was 87.4 µM and the IC50 (HepG2) was 38.4 µM. For the same compound, the Activity (Mus musculus [15]) was “Non-toxic”, the IC50 (MCF7) was 25 µM and the Activity (Mus musculus [16]) was “Non-toxic”. The Activity (Mus musculus [17]) was “Non-toxic”, the Activity (CCRF S-180 [11]) was 0.952 g and the IC50 (HeLa) was 33.5 µM. For the same compound, the Activity (Mus musculus [18]) was “Non-toxic” and the Activity (Mus musculus [19]) was “Non-toxic”.
